Results as given in patent US20120329761A1, “USE OF TIGECYCLINE FOR TREATMENT OF CANCER” (UNIVERSITY HEALTH NETWORK, priority 2010, published 2012).
pIC50: −log10 of the molar value.

Experiments:
leukemia cell lines = assay: Cell growth and viability, MTS assay, 72 hours; type: cell-based; settings: tested leukemia cell lines
Description: (§1) FIG. 1. […] (A) TEX and (B) M9-ENL1 cells were plated in 96-well plates and drugs were added to the wells (5 μL per well) for final concentrations of 10 μM (shown) and 1 μM. Cell growth and viability was measured at 48 hours (M9-ENL-1) and 72 hours (TEX) by MTS assay. Cell viability is shown for each compound as a percent of cells treated with DMSO alone. (C) Leukemia, (D) myeloma, and (E) solid tumor cell lines were seeded in 96-well plates and then treated with increasing concentrations of tigecycline. Cell growth and viability was measured at 72 hours by MTS assay. Cell viability is expressed as mean percentage plus or minus SD (n=3) relative to vehicle-treated cells. […] Cell viability was measured at 72 hours by MTS assay. Cell viability is expressed as mean percentage plus or minus SD (n=3) relative to vehicle-treated cells.
(§2) Human leukemia (OCI-AML2, HL60, U937) cell lines were maintained in RPMI 1640 medium. Myeloma (LP-1, KMS11, 8226, JJN3, OP-M2) cell lines were maintained in Iscove's media. Ovarian (OVCAR), prostate (PC3), and lung alveolar (A549) cell lines were maintained in RPMI 1640 medium. Media was supplemented with 10% fetal calf serum (FCS), […] (all from Hyclone, Logan, Utah). TEX cells were maintained in IMDM, 15% FBS, 2 mM L-glutamine, 1%, penicillin-streptomycin, 20 ng/mL SCF, 2 ng/mL IL-3. M9-ENL1 cells were maintained in alpha-MEM, 20% FBS, 5% human plasma, 2 mM L-glutamine, 1%, penicillin-streptomycin, 100 ng/mL SCF, 10 ng/mL IL-3, 5 ng/mL IL-7, and 5 ng/mL FLT3L. All cells were incubated at 37° C. in a humidified air atmosphere supplemented with 5% CO2.
(§3) Cell growth and viability was assessed by the MTS assay (Promega, Madison, Wis.) according to the manufacturer's instructions. Apoptosis and cell death was measured by Annexin V-fluoroscein isothiocyanate (FITC; Biovision Research Products, Mountain View, Calif.), propidium iodide staining and flow cytometry according to the manufacturer's instructions and as previously described^30.

myeloma cell lines = assay: Cell growth and viability, MTS assay, 72 hours; type: cell-based
Description: as §1, §2, §3

solid tumour cell lines = assay: Cell growth and viability, MTS assay, 72 hours; type: cell-based
Description: as §1, §2, §3

TEX cells = assay: Apoptosis by Annexin V flow cytometry; type: cell-based, human; settings: over time
Description: as §1, §3

[1] = system: Cox-1, Cox-2, Cox-4, grp78, XIAP; assay: Immunoblotting of mitochondrially and cytosolically translated proteins; type: cell-based, human; settings: TEX, OCI-AML2 and two AML patients' cells, 2.5 μM and 5 μM
Description: FIG. 4. […] (A) Cells from TEX, OCI-AML2 and two primary AML patients were treated with increasing concentrations (2.5 μM and 5 μM) of tigecycline for 36 and 48 hours of tigecycline. Total proteins were extracted and analyzed by western blotting for Cox-1, Cox-2, Cox-4, grp78, XIAP, actin and tubulin. (B) TEX and AML patient cells were treated with increasing concentrations (2.5 μM and 5 μM) of tigecycline. Cox-1, Cox-2, and Cox-4 mRNA expression relative 18S was determined by quantitative RT-PCR. Data is shown as mean±SD. (C) TEX cells were treated with increasing concentrations of tigecycline and chloramphenicol (CAP) for 72 hours. Complex I, II and IV enzyme activity relative to citrate synthase activity was determined as described in materials and methods. (D) Cells from TEX, primary AML patients, and normal donors were treated with increasing concentrations of tigecycline. Mitochondrial membrane potential (Δψ) was determined by staining cells with JC-1 dye, and flow cytometry analysis (Red/Green ratio). Reactive oxygen species generation (ROS) was determined by staining with h2-DCFDA and Dihydroethidium (DHE).
Total cell lysates were prepared from cells as described previously^32. […] Protein concentrations were measured by the DC Protein assay. […]

Complex I, II and IV = assay: Respiratory chain complex enzyme activity relative to citrate synthase; type: cell-based, human; settings: TEX cells, 2.5 μM and 5 μM, 72 hours
Description: FIG. 4. Tigecycline decreases mitochondrial Cox-1 protein levels in TEX cells. (A) Cells from TEX, OCI-AML2 and two primary AML patients were treated with increasing concentrations (2.5 μM and 5 μM) of tigecycline for 36 and 48 hours of tigecycline. Total proteins were extracted and analyzed by western blotting for Cox-1, Cox-2, Cox-4, grp78, XIAP, actin and tubulin. (B) TEX and AML patient cells were treated with increasing concentrations (2.5 μM and 5 μM) of tigecycline. Cox-1, Cox-2, and Cox-4 mRNA expression relative 18S was determined by quantitative RT-PCR. Data is shown as mean±SD. (C) TEX cells were treated with increasing concentrations of tigecycline and chloramphenicol (CAP) for 72 hours. Complex I, II and IV enzyme activity relative to citrate synthase activity was determined as described in materials and methods. (D) Cells from TEX, primary AML patients, and normal donors were treated with increasing concentrations of tigecycline. Mitochondrial membrane potential (Δψ) was determined by staining cells with JC-1 dye, and flow cytometry analysis (Red/Green ratio). Reactive oxygen species generation (ROS) was determined by staining with h2-DCFDA and Dihydroethidium (DHE).
The effect of tigecycline treatment on enzyme activity of the respiratory chain complexes relative to the mitochondrial non-respiratory chain enzyme citrate synthase was examined. TEX leukemia cells were treated with tigecycline for […] and then respiratory chain enzyme relative to citrate synthase activity was analyzed. Equivalent tigecycline concentrations (2.5 μM and 5 μM) decreased enzyme activities of Complexes I and IV relative to citrate synthase, while complex II activity was less affected (FIG. 4C).

[2] = cited from earlier work

Compound `CN(C)c1cc(NC(=O)CNC(C)(C)C)c(O)c2c1C[C@H]1C[C@H]3[C@H](N(C)C)C(O)=C(C(N)=O)C(=O)[C@@]3(O)C(O)=C1C2=O` [tigecycline] has a pIC50 (leukemia cell lines) of 5.10 to 5.30, a pIC50 (myeloma cell lines) of less than 5.00 and a pIC50 (solid tumour cell lines) of less than 5.00. For the same compound, the “apoptosis, percentage of cells labeled by Annexin V” value (TEX cells) was “time-dependent increases in apoptosis”, the “expression of nuclear-encoded proteins XIAP or grp78” value [1] was “did not alter” and the “expression of Cox subunit proteins” value ([1]; 36 and 48 hours) was “preferential decrease of mitochondrially-translated subunits I and II, over nuclear-translated subunit IV”. For the same compound, the “Complex I enzyme activity relative to citrate synthase” value (Complex I, II and IV) was “decreased”, the “Complex II enzyme activity relative to citrate synthase” value (Complex I, II and IV) was “less affected” and the “Complex IV enzyme activity relative to citrate synthase” value (Complex I, II and IV) was “decreased”. For the same compound, the toxicity ([2]; 50 mg intravenously every 12 hours) was “without significant toxicity”, the “half life in humans” value ([2]; humans) was 27 h and the tolerability ([2]; intravenous doses of 300 mg) was “well tolerated save for mild nausea”.
